According to patent US20050032745A1, “Modified low molecular weight heparin that inhibits clot associated coagulation factors” (Hamilton Civic Hospitals Res Dev., Inc., priority 2000, published 2005):

What was measured:
washed plasma clot = assay: procoagulant activity of washed plasma clot incubated in unanticoagulated whole blood; assay type: biochemical
Text: There is mounting evidence that both fibrin-bound thrombin and platelet-bound factor Xa contribute to the intense procoagulant activity of thrombi. […] Development of these agents requires an understanding of the mechanisms by which fibrin-bound IIa and platelet-bound factor Xa are protected from inactivation by heparin, LMWH and hirudin.

injured rabbit aorta = assay: rabbit arterial thrombosis prevention model (flow distal to 95% stenosis in injured aorta); assay type: in vivo; conditions: FIG. 11
Experimental: This example illustrates a study comparing the efficacy and safety of the MLMWH compounds of the present invention, which are denoted in the figures as V21, LMWH, heparin and hirudin in a the rabbit arterial thrombosis prevention model. […] The arterial thrombosis prevention model was modified so that both efficacy and safety could be assessed in the same animal. Efficacy was assessed by measuring flow over 90 minutes distal to a 95% stenosis in an injured rabbit aorta, and safety was assessed by measuring blood loss over 30 minutes using the rabbit ear model. The four compounds were compared at three dosage levels. Each compound was administered as a bolus and infusion for 90 minutes. The doses listed in the following figures represent the bolus and infusion/60 minutes, administered for 90 minutes. The doses for heparin are shown as units/Kg, for LMWH and V21 as mg/Kg and for hirudin as mg/Kg. V21 has similar anti-Xa activity to LMWH and about twice the anti-IIa activity of LMWH. Thus, the specific activity of LMWH is 100 anti-Xa/mg and 30 anti-IIa units/mg. The specific activity of V21 is 100 anti-Xa units/mg and 60 anti-IIa units/mg, whereas the specific activity of heparin is about 150 anti-Xa units and 150 anti-IIa units/mg. The anticoagulants were compared in the following dosages. […]

Substance	blocking of the ability of a washed plasma clot to accelerate coagulation (washed plasma clot)	response of the model to the antithrombotic effects (injured rabbit aorta)
TAP: tick anticoagulant peptide, a direct inhibitor of factor Xa (YNRLCIKPRDWIDECDSNEGGERAYFRNGKGGCDSFWICPEDHTGADYYSSYRDCFNACI; UniProt P17726 1-60, looked up)	cannot be blocked	–
hirudin	cannot be blocked	very responsive
